# Assay results as given in patent publication US8642612B2, “Nicotinic desensitizers and methods of selecting, testing, and using them” (Potomac Pharmaceuticals, Inc., priority 2006, dated 2014).
# Where two headings read alike, the source gives them in different places.
# Experiments:
# rat α4β2 nAChRs = biological target: T1, rat α4β2 nAChRs (Rattus norvegicus, UniProt P09483+P12390); assay: [3H]epibatidine competition binding, rat α4β2 nAChRs expressed in HEK cells
# T1 construct: expressed in transfected cells; host or cells: HEK cells (membrane homogenates)
# Method: (§1) Briefly, cultured cells at >80% confluence were removed from their flasks (80 cm^2) with a disposable cell scraper and placed in 10 ml of 50 mM Tris HCl buffer (pH 7.4, 4° C.). The cell suspension was centrifuged at 10,000×g for 5 min and the pellet was collected. For cells treated chronically with nicotinic agonists during culturing, the pellet was washed two more times by centrifugation in fresh buffer to remove residual drug. […] Bound and free ligands were separated by vacuum filtration through Whatman GF/C filters treated with 0.5% polyethylenimine. The filter-retained radioactivity was measured by liquid scintillation counting. Specific binding was defined as the difference between total binding and nonspecific binding. Data from saturation and competition binding assays were analyzed using Prism 4 (GraphPad Software, San Diego, Calif.).
# (§2) All ligand binding assays were carried out using rat or human nAChRs heterologously expressed in human cells or in native rat brain tissues.
# rat α3β4 nAChRs [1] = biological target: T2, rat α3β4 nAChRs (Rattus norvegicus, UniProt P04757+P12392); assay: [3H]epibatidine competition binding, rat α3β4 nAChRs expressed in HEK cells
# T2 construct: expressed in transfected cells; the efflux text says only stably transfected cells
# Method: as §1, with “drug. The cell pellet was then homogenized in 10 ml buffer with a polytron homogenizer (Model PT2100, 12 mm aggregate, 26,000 rpm, 20 seconds) and centrifuged at 36,000 g for 10 min at 4° C. The membrane pellet was resuspended in fresh buffer, and aliquots of the membrane preparation equivalent to 30 to 200 μg protein were used for binding assays.” for “drug.”
# as §2
# human α4β2 nAChRs [2] = biological target: T3, human α4β2 nAChRs (Homo sapiens, UniProt P17787+P43681); assay type: cell-based; conditions: stimulation of 86Rb+ efflux
# T3 construct: expressed in transfected cells; the efflux text says only stably transfected cells
# Method: (§3) In brief, cells were plated into 24-well plates coated with poly-D-lysine. […] The cells were then incubated in growth medium (0.5 ml/well) containing ^86Rb^+ (2 μCi/ml) for 4 hour at 37° C. The loading mixture was then aspirated, and the cells were washed four times with 1 ml buffer (15 mM HEPES, 140 mM NaCl, 2 mM KCl, 1 mM MgSO4, 1.8 mM CaCl2, 11 mM Glucose, pH 7.4). One ml of buffer with or without compounds to be tested was then added to each well. After incubation for 2 min, the assay buffer was collected for measurements of ^86Rb^+ released from the cells. Cells were then lysed by adding 1 ml of 100 mM NaOH to each well, and the lysate was collected for determination of the amount of ^86Rb^+ that was in the cells at the end of the efflux assay. Radioactivity of assay samples and lysates was measured by liquid scintillation counting. Total loading (cpm) was calculated as the sum of the assay sample and the lysate of each well. The amount of ^86Rb^+ efflux was expressed as a percentage of […] loaded. […] IC50 values were determined by nonlinear least-squares regression analyses (GraphPad, San Diego, Calif.).
# (§4) The agonist activities of ligands on nAChRs were assessed by measuring agonist-stimulated ^86Rb^+ efflux from stably transfected cells.
# rat α3β4 nAChRs [3] = biological target: T2, rat α3β4 nAChRs; assay type: cell-based; conditions: stimulation of 86Rb+ efflux
# Method: as §3, §4
# human α4β2 nAChRs [4] = biological target: T3, human α4β2 nAChRs; assay: Inhibition of nicotine-stimulated 86Rb+ efflux, cells expressing human α4β2 nAChRs; assay type: cell-based
# Method: as §3
# rat α3β4 nAChRs [5] = biological target: T2, rat α3β4 nAChRs; assay: Inhibition of nicotine-stimulated 86Rb+ efflux, cells expressing rat α3β4 nAChRs; assay type: cell-based
# Method: as §3
# [6] = cited from earlier work
# [7] = cited from earlier work; remark: listed apart in the source
# [8] = 10 min pretreatment before nicotine, read-out: Desensitization Potency (IC50(D,10 min), nM) α4β2
# [9] = applied simultaneously with nicotine, read-out: Acute Antagonist Potency (IC50(A), nM) α4β2
# [10] = 10 min pretreatment before nicotine, read-out: Desensitization Potency (IC50(D,10 min), nM) α3β4
# [11] = applied simultaneously with nicotine, read-out: Acute Antagonist Potency (IC50(A), nM) α3β4
# [12] = example tables, species not given, read-out: Equilibrium binding affinity (Ki, nM) α3β4
# [13] = Acute Antagonist Potency (IC50(A), nM) α4β2, applied simultaneously with nicotine
# [14] = Desensitization Potency (IC50(D,10 min), nM) α4β2, 10 min pretreatment before nicotine
# [15] = Acute Antagonist Potency (IC50(A), nM) α3β4, applied simultaneously with nicotine
# [16] = Desensitization Potency (IC50(D,10 min), nM) α3β4, 10 min pretreatment before nicotine
# [17] = example tables, species not given, read-out: Equilibrium binding affinity (Ki, nM) α4β2
# [18] = read-out: Acute Antagonist Potency (IC50(A), nM) α3β4
SMILES,Ki (rat α4β2 nAChRs),Ki (rat α3β4 nAChRs [1]),Agonist Activity α4β2 (human α4β2 nAChRs [2]),Agonist Activity α3β4 (rat α3β4 nAChRs [3]),IC50 (human α4β2 nAChRs [4]; [8]),IC50 (human α4β2 nAChRs [4]; [9]),IC50 (rat α3β4 nAChRs [5]; [10]),IC50 (rat α3β4 nAChRs [5]; [11]),"nausea, share of clinical trial participants [6]",Ki (rat α3β4 nAChRs [1]; [12]),IC50 (human α4β2 nAChRs [4]; [13]),IC50 (human α4β2 nAChRs [4]; [14]),IC50 (rat α3β4 nAChRs [5]; [15]),IC50 (rat α3β4 nAChRs [5]; [16]),t1/2 in vivo [7],Ki (rat α4β2 nAChRs; [17]),IC50 (rat α3β4 nAChRs [5]; [18])
CN1CCC[C@H]1COc1cncc(C#CCCCCO)c1 [ZW-101],0.67 nM,16000 nM,Not detected,Not detected,160 nM,> 10000 nM,2500 nM,> 10000 nM,–,–,–,–,–,–,–,–,–
c1cnc2cc3c(cc2n1)[C@@H]1CNC[C@H]3C1 [varenicline],–,–,–,–,–,–,–,–,~30%,–,–,–,–,–,–,–,–
FCCCCC#Cc1cncc(OC[C@@H]2CCN2)c1 [ZW-104],0.21 nM,–,Not detected,Not detected,–,–,–,–,–,5500 nM,> 10000 nM,5 nM,9400 nM,5700 nM,–,–,–
CN1CCC[C@H]1COc1cncc(CCCCCCO)c1 [ZW-91],–,–,Not detected,Not detected,–,–,–,–,–,–,> 10000 nM,1000 nM,> 10000 nM,> 10000 nM,–,–,–
"CN1CCCC1c1cccnc1 (single isomer, unassigned; (-)) [(−)-Nicotine, nicotine]",–,–,–,–,–,–,–,–,–,–,–,–,–,–,> 1 h,–,–
CN1CCC[C@H]1COc1cncc(C#CCNC(=O)OC(C)(C)C)c1 [ZW-97],1.4 nM,75000 nM,Not detected,Not detected,22 nM,> 10000 nM,6900 nM,> 10000 nM,–,–,–,–,–,–,–,–,–
CNc1ccccc1C(=O)OCC#Cc1cncc(OC[C@@H]2CCN2)c1 [Sazetidine-B],0.22 nM,1300 nM,Not detected,Not detected,30 nM,> 10000 nM,6000 nM,> 10000 nM,–,–,–,–,–,–,–,–,–
O=c1cc(CO)cc2n1CC1CNCC2C1 (centres unmarked) [SKC-2-203],–,–,Not detected,Not detected,600 nM,> 10000 nM,> 10000 nM,–,–,13000 nM,–,–,–,–,–,11 nM,> 10000 nM
CN1CCC[C@H]1COc1cncc(C#CCCCCBr)c1 [ZW-109],1.4 nM,16000 nM,Not detected,Not detected,270 nM,> 10000 nM,2300 nM,6900 nM,–,–,–,–,–,–,–,–,–
CN1CCC[C@H]1COc1cncc(C#CCCCCCCCCO)c1 [ZW-93],–,–,Not detected,Not detected,–,–,–,–,–,66000 nM,7400 nM,460 nM,4600 nM,3800 nM,–,6.1 nM,–
Cc1cc2n(c(=O)c1)CC1CNCC2C1 (centres unmarked) [SKC-2-150],–,–,Not detected,Not detected,250 nM,> 10000 nM,> 10000 nM,–,–,6700 nM,–,–,–,–,–,1.9 nM,> 10000 nM
CCCCC#Cc1cncc(OC[C@@H]2CCCN2C)c1 [ZW-100],–,–,Not detected,Not detected,190 nM,> 10000 nM,3300 nM,> 10000 nM,–,40000 nM,–,–,–,–,–,1.4 nM,–
CN1CCC[C@H]1COc1cncc(C#CCCCCF)c1 [ZW-110],–,–,Not detected,Not detected,–,–,–,–,–,88000 nM,> 10000 nM,60 nM,> 10000 nM,> 10000 nM,–,0.95 nM,–
CN1CCC[C@H]1COc1cncc(C#CCO)c1 [ZW-89],–,–,Not detected,Not detected,–,–,–,–,–,23000 nM,> 10000 nM,180 nM,> 10000 nM,> 10000 nM,–,0.93 nM,–
FCCCCC#Cc1cncc(OC[C@@H]2CCCN2)c1 [ZW-102],–,–,Not detected,Not detected,–,–,–,–,–,7600 nM,> 10000 nM,120 nM,> 10000 nM,5400 nM,–,0.91 nM,–
C#Cc1cncc(OC[C@@H]2CCCN2C)c1 [ZW-87],–,–,Not detected,Not detected,–,–,–,–,–,6800 nM,> 10000 nM,50 nM,> 10000 nM,> 10000 nM,–,1.6 nM,–
CN1CCC[C@H]1COc1cncc(C#CC(C)(C)O)c1 [ZW-88],–,61000 nM,Not detected,Not detected,–,–,–,–,–,–,> 10000 nM,890 nM,> 10000 nM,> 10000 nM,–,2.9 nM,–
CN1CCC[C@H]1COc1cncc(C#Cc2ccccc2)c1 [ZW-98],–,–,Not detected,Not detected,170 nM,> 10000 nM,5300 nM,> 10000 nM,–,8100 nM,–,–,–,–,–,0.51 nM,–
